Assay results reported in patent US10112939B2, “Tied-back benzamide derivatives as potent rock inhibitors” (Bristol-Myers Squibb Company, priority 2014, dated 2018).

Molecular target: ROCK2 (Homo sapiens (Human), UniProt O75116)
Test: ROCK assay (peptide substrate phosphorylation, LABCHIP 3000 Reader)
Format: biochemical
Conditions: 5 μM ATP, 1.5 μM peptide substrate
Procedure: Compounds were dissolved in DMSO so that the final concentration of DMSO was <2%, and the reaction was initiated with Rho kinase variants. After incubation, the reaction was terminated by the addition of EDTA and the phosphorylated and non-phosphorylated peptides separated using a LABCHIP® 3000 Reader (Caliper Life Sciences). […] Compounds were tested in dose-response format, and the inhibition of kinase activity was calculated at each concentration of compound.

Chain of ROCK2 (O75116 whole entry, species assumed): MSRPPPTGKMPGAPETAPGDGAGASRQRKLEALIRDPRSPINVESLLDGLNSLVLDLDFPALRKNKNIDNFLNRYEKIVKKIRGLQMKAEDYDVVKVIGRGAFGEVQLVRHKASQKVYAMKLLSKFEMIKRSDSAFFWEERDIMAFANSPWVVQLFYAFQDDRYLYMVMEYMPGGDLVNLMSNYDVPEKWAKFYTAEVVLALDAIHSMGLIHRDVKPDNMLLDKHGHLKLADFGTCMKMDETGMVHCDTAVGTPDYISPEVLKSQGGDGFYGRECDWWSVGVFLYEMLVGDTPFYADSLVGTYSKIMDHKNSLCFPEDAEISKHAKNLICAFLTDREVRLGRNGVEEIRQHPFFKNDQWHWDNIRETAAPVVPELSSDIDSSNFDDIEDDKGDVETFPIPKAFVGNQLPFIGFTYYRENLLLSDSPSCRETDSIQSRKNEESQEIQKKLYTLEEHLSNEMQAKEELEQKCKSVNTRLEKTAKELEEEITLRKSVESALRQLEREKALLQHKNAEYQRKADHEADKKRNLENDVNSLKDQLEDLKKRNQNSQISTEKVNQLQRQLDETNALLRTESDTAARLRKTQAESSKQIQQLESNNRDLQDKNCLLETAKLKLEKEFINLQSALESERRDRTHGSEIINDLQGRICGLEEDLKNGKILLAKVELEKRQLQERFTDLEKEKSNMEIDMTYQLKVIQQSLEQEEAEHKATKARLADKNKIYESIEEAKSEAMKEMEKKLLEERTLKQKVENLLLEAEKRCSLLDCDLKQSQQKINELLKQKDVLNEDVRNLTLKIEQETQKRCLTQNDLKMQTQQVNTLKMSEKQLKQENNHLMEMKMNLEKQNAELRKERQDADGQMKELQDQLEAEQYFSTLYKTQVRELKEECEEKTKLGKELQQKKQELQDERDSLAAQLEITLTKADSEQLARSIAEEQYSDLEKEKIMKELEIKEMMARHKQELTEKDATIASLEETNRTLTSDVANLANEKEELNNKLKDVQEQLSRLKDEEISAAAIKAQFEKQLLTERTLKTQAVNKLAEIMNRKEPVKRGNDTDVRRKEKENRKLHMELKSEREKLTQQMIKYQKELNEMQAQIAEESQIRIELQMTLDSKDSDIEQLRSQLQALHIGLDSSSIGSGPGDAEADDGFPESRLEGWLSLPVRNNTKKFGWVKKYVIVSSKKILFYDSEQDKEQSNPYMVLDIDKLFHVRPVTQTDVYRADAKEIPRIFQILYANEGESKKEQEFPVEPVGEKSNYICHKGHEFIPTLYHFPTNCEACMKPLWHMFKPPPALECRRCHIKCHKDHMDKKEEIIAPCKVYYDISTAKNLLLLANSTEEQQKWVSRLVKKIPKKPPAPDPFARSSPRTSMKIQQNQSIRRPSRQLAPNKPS

| SMILES | IC50 [nM] |
| --- | --- |
| COc1cc(C(=O)N2CC(O)C[C@@H]2c2cccc(C(=O)N3CC(OC)C3)c2)ccc1-c1cn[nH]c1 (stereo partly drawn) [Example 62, (5R)-1-[3-methoxy-4-(1H-pyrazol-4-yl)benzoyl]-5-[3-(3-methoxyazetidine-1-carbonly)phenyl] pyrrolidin-3-ol] | 316 |
| COc1cc(C(=O)N2CC(O)C[C@@H]2c2cccc(C(=O)NCc3ccc(C(F)(F)F)cc3F)c2)ccc1-c1cn[nH]c1 (stereo partly drawn) [Example 63, N-{[2-fluoro-4-(trifluoromethyl)phenyl]methyl}-3-[(2R)-4-hydroxy-1-[3-methoxy-4-(1H-pyrazol-4-yl)benzoyl]pyrrolidin-2-yl]benzamide] | 5.25 |
| COc1cc(C(=O)N2CC(O)C[C@@H]2c2cccc(C(=O)N3CC(F)C3)c2)ccc1-c1cn[nH]c1 (stereo partly drawn) [Example 64, (5R)-5-[3-(3-fluoroazetidine-1-carbonyl)phenyl]-1-[3-methoxy-4-(1H-pyrazol-4-yl)benzoyl]pyrrolidin-3-ol] | 204 |
| COc1cc(C(=O)N2CC(O)C[C@@H]2c2cccc(C(=O)N3CC(F)(F)C3)c2)ccc1-c1cn[nH]c1 (stereo partly drawn) [Example 65, (5R)-5-[3-(3,3-difluoroazetidine-1-carbonyl)phenyl]-1-[3-methoxy-4-(1H-pyrazol-4-yl)benzoyl]pyrrolidin-3-ol] | 91.4 |
| COc1cc(C(=O)N2CC(O)C[C@@H]2c2cccc(C(=O)NCc3cc(F)cc(C(F)(F)F)c3)c2)ccc1-c1cn[nH]c1 (stereo partly drawn) [Example 66, N-{[3-fluoro-5-(trifluoromethyl)phenyl]methyl}-3-[(2R)-4-hydroxy-1-[3-methoxy-4-(1H-pyrazol-4-yl)benzoyl]pyrrolidin-2-yl]benzamide] | 4.35 |
| COc1cc(C(=O)N2CC(O)C[C@@H]2c2cccc(C(=O)N3CCC3)c2)ccc1-c1cn[nH]c1 (stereo partly drawn) [Example 67, (5R)-5-[3-(azetidine-1-carbonyl)phenyl]-1-[3-methoxy-4-(1H-pyrazol-4-yl)benzoyl]pyrrolidin-3-ol] | 293 |
| COc1cc(C(=O)N2CCNCC2c2ccccc2)ccc1-c1cn[nH]c1 (centres unmarked) [Example 68, 1-[3-Methoxy-4-(1H-pyrazol-4-yl)benzoyl]-2-phenylpiperazine] | 60.2 |
| COc1cc(C(=O)N[C@@H]2CNC[C@H]2c2ccccc2)ccc1-c1cn[nH]c1 [Example 69, 3-Methoxy-N-[(3S,4R)-4-phenylpyrrolidin-3-yl]-4-(1H-pyrazol-4-yl)benzamide] | 3.59 |
| COc1cc(C(=O)N2CCCC2c2cccc(-c3cn[nH]c3)c2)ccc1-c1cn[nH]c1 (centres unmarked) [Example 71, 4-(2-Methoxy-4-{2-[3-(1H-pyrazol-4-yl)phenyl]pyrrolidine-1-carbonyl}phenyl)-1H-pyrazole] | 54.9 |
| COc1cc(-c2cn[nH]c2)ccc1C(=O)N1CCCC1c1cccc(-c2cn[nH]c2)c1 (centres unmarked) [Example 72, 4-(3-methoxy-4-{2-[3-(1H-pyrazol-4-yl)phenyl]pyrrolidine-1-carbonyl}phenyl)-1H-pyrazole] | 1600 |
| COc1cc(C(=O)N2CCCC2c2cccc(-c3ccnn3C)c2)ccc1-c1cn[nH]c1 (centres unmarked) [Example 73, 5-(3-{1-[3-methoxy-4-(1H-pyrazol-4-yl)benzoyl]pyrrolidin-2-yl}phenyl)-1-methyl-1H-pyrazole] | 1530 |
| COc1cc(C(=O)N2CCCC2c2cccc(-c3cnn(CC(C)(C)O)c3)c2)ccc1-c1cn[nH]c1 (centres unmarked) [Example 74, 1-[4-(3-{1-[3-methoxy-4-(1H-pyrazol-4-yl)benzoyl]pyrrolidin-2-yl}phenyl)-1H-pyrazol-1-yl]-2-methylpropan-2-ol] | 901 |
| COc1cc(C(=O)N2CCCC2c2cccc(-c3c(C)noc3C)c2)ccc1-c1cn[nH]c1 (centres unmarked) [Example 75, 4-(3-{1-[3-methoxy-4-(1H-pyrazol-4-yl)benzoyl]pyrrolidin-2-yl}phenyl)-3,5-dimethyl-1,2-oxazole] | 1570 |
| COc1cc(C(=O)N2CCCC2c2cccc(-c3ccoc3)c2)ccc1-c1cn[nH]c1 (centres unmarked) [Example 76, 4-(4-{2-[3-(furan-3-yl)phenyl]pyrrolidine-1-carbonyl}-2-methoxyphenyl)-1H-pyrazole] | 320 |
| COc1cc(C(=O)N2CCCC2c2cccc(-c3ccn[nH]3)c2)ccc1-c1cn[nH]c1 (centres unmarked) [Example 77, 4-(2-methoxy-4-{2-[3-(1H-pyrazol-5-yl)phenyl]pyrrolidine-1-carbonyl}phenyl)-1H-pyrazole] | 887 |

Other lines, results leading:

| IC50 [nM] | SMILES |
| --- | --- |
| 4.7 | COc1cc(C(=O)N2CC(F)C[C@@H]2c2cccc(C(=O)NC3CC3)c2)ccc1-c1cn[nH]c1 (stereo partly drawn) [Example 78, N-Cyclopropyl-3-[(2R)-4-fluoro-1-[3-methoxy-4-(1H-pyrazol-4-yl)benzoyl]pyrrolidin-2-yl]benzamide] |
| 24.3 | COc1cc(C(=O)N2CC(F)(F)C[C@@H]2c2cccc(C(=O)NC3CC3)c2)ccc1-c1ccncc1 [Example 79, N-Cyclopropyl-3-[(2R)-4,4-difluoro-1-[3-methoxy-4-(pyridin-4-yl)benzoyl]pyrrolidin-2-yl]benzamide] |
| 5.4 | COc1cc(C(=O)N2CC(F)(F)C[C@@H]2c2cccc(C(=O)NC3CC3)c2)ccc1-c1cn[nH]c1 [Example 80, N-Cyclopropyl-3-[(2R)-4,4-difluoro-1-[3-methoxy-4-(1H-pyrazol-4-yl)benzoyl]pyrrolidin-2-yl]benzamide] |
| 158 | COc1cccc(C2CCCN2C(=O)c2ccc(-c3ccnc(N)c3)c(OC)c2)c1 (centres unmarked) [Example 81, 4-{2-Methoxy-4-[2-(3-methoxyphenyl)pyrrolidine-1-carbonyl]phenyl} pyridin-2-amine] |
| 56.8 | COc1cccc(C2CCCN2C(=O)c2ccc(-c3ccnc4[nH]ccc34)c(OC)c2)c1 (centres unmarked) [Example 82, 1-(3-methoxy-4-{1H-pyrrolo[2,3-b]pyridin-4-yl}benzoyl)-2-(3-methoxyphenyl) pyrrolidine] |
| 153 | COc1cccc(C2CCCN2C(=O)c2ccc(-c3ccnc(F)c3)c(OC)c2)c1 (centres unmarked) [Example 83, 2-fluoro-4-{2-methoxy-4-[2-(3-methoxyphenyl)pyrrolidine-1-carbonyl]phenyl}pyridine] |
| 24.1 | COc1cccc(C2CCCN2C(=O)c2ccc(-c3ccncc3F)c(OC)c2)c1 (centres unmarked) [Example 84, 3-fluoro-4-{2-methoxy-4-[2-(3-methoxyphenyl)pyrrolidine-1-carbonyl]phenyl}pyridine] |
| 5.42 | COc1cc(C(=O)N2CC(OC)C[C@@H]2c2cccc(C(=O)NCC3CC3)c2)ccc1-c1cn[nH]c1 (stereo partly drawn) [Example 86, N-(Cyclopropylmethyl)-3-[(2R)-4-methoxy-1-[3-methoxy-4-(1H-pyrazol-4-yl)benzoyl]pyrrolidin-2-yl]benzamide] |
| 461 | COc1cc(C(=O)N2CC(OC)C[C@@H]2c2cccc(C(=O)N(C)CC3CC3)c2)ccc1-c1cn[nH]c1 (stereo partly drawn) [Example 87, N-(Cyclopropylmethyl)-3-[(2R)-4-methoxy-1-[3-methoxy-4-(1H-pyrazol-4-yl)benzoyl]pyrrolidin-2-yl]-N-methylbenzamide] |
| 10.6 | COc1cc(C(=O)N2C[C@](C)(O)C[C@@H]2c2cccc(C(=O)NCC3CC3)c2)ccc1-c1cn[nH]c1 [Example 88, N-(Cyclopropylmethyl)-3-[(2R,4R)-4-hydroxy-1-[3-methoxy-4-(1H-pyrazol-4-yl)benzoyl]-4-methylpyrrolidin-2-yl]benzamide] |
| 784 | COc1cc(C(=O)N2CC(OC(C)=O)C[C@@H]2c2cccc(S(C)(=O)=O)c2)ccc1-c1cn[nH]c1 (stereo partly drawn) [Example 89, (5R)-5-(3-Methanesulfonylphenyl)-1-[3-methoxy-4-(1H-pyrazol-4-yl)benzoyl]pyrrolidin-3-yl acetate] |
